Common to all, as to experiment: inhibition of [3H]cGMP uptake in OAT2-HEK293 cells
Holding throughout (assay type): cell-based

The target in test [1] is T1, human OAT2 (organic anion transporter 2) (Homo sapiens, UniProt Q9Y694).
T1 construct: gene SLC22A7; full-length human OAT2 stably transfected in HEK293 cells (PortaCellTec Biosciences)
T1 sequence (Q9Y694 1-548): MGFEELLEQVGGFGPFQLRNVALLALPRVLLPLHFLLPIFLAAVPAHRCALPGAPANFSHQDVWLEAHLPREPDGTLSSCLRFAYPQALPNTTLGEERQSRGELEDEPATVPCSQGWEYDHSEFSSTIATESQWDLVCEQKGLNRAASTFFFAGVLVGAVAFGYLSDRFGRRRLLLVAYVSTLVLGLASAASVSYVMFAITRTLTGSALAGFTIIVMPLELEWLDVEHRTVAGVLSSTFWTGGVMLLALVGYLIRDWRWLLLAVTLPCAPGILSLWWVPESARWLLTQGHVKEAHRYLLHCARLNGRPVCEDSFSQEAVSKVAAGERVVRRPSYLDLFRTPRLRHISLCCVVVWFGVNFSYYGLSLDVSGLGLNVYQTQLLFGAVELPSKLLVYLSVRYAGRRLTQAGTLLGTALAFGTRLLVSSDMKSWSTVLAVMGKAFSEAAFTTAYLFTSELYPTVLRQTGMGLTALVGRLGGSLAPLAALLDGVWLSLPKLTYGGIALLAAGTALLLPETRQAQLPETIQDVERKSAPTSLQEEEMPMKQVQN

The target in test [2] is T1, human OAT2 (organic anion transporter 2). The note with it: read-out: % inhibition at 500 μM.
For test [3] the target is unchanged. The note with it: 500 μM inhibitor, 10 μM cGMP, 5 min, 37°C, pH 7.4.

Structures are written as SMILES.

The term IC50 denotes the concentration at which inhibition is half-maximal. High values mean weaker potency, low ones greater potency. Compound `CCCCNc1cc(C(=O)O)cc(S(N)(=O)=O)c1Oc1ccccc1` [bumetanide] registered an IC50 in test [1] of 130 ± 21.8 µM.

As a reminder, the inhibition is the percentage by which the read-out fell short of the control. For the compound `N[C@@H](CC(=O)N1CCn2c(nnc2C(F)(F)F)C1)Cc1cc(F)c(F)cc1F` [sitagliptin], the inhibition at 500 µM in test [2] is approximately 25%.

As to `CCOC(=O)[C@H](CCc1ccccc1)N[C@@H](C)C(=O)N1CCC[C@H]1C(=O)O` [enalapril], the “% inhibition at 500 μM” value in test [3] was “weak inhibition of OAT2-mediated cGMP uptake by high concentrations of sitagliptin and enalapril”.

With `COc1cc(CC(=O)O)ccc1O` [homovanillic acid], the “% inhibition at 500 μM” value in test [3] was “significantly decreased in the presence of the dopamine metabolite homovanillate”.

`COc1ccc2c(c1)c(CC(=O)O)c(C)n2C(=O)c1ccc(Cl)cc1` [indomethacin]: in test [3], the “% inhibition at 500 μM” value is on record as “OAT2 transport function was abolished by indomethacin”.

For the origin of these results see article PMC4325971, “Sex-Differences in Renal Expression of Selected Transporters and Transcription Factors in Lean and Obese Zucker Spontaneously Hypertensive Fatty Rats” (Journal of Diabetes Research, 2015).
